# What was measured:
# [1] = biological target: T1, CYP11B2 (aldosterone synthase) (Homo sapiens, UniProt P19099); experiment: Aldosterone cell secretion in NCI-H295R cells; assay type: cell-based; conditions: 24 hours incubation with cell stimulant
# T1 construct: the NCI-H295R cells have CYP11B2 (aldosterone synthase) and CYP11B1 (steroid 11-hydroxylase); host or cells: NCI-H295R
# T1 sequence (P19099 25-503): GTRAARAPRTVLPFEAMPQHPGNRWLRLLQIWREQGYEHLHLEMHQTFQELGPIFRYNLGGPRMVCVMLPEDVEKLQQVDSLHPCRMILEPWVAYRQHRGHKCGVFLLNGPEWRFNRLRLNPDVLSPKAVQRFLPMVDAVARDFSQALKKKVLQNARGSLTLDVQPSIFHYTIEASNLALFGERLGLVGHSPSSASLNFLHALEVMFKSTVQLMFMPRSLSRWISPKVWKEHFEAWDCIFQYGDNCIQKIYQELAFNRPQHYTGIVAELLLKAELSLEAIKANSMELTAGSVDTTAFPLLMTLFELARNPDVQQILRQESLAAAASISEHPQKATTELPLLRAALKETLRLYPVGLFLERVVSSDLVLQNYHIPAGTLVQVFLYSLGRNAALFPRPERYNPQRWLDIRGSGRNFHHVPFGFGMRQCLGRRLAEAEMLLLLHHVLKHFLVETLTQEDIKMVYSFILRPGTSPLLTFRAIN
# Description: (§1) The activities of a compound according to the present invention can be assessed by the following in vitro method well-described in the art.
# (§2) In particular, the inhibition of aldosterone and cortisol secretion in vitro can be determined by the following assay.
# (§3) The cell line NCI-H295R was originally isolated from an adrenocortical carcinoma and has been characterized in the literature through the stimulable secretion of steroid hormones and the presence of the enzymes essential for steroidogenesis. […]
# (§4) For in vitro measurement of aldosterone and cortisol activity, human adrenocortical carcinoma NCI-H295R cells are seeded in NBS 96-well plates at a density of 25,000 cells/well in 100 μL of a growth medium containing DMEM/F12 supplemented with 10% FCS, 2.5% Nu-serum, 1 μg ITS/ml, and 1× antibiotic/antimycotic. […] At the end of incubation, the excretion of aldosterone and cortisol into the culture medium can be detected and quantified by commercially available, specific monoclonal antibodies in radioimmunoassays in accordance with the manufacturer's instructions.
# (§5) Measurement of aldosterone can also be performed using a 96-well plate format. […] The amount of aldosterone in each sample is calculated by comparing with a standard curve generated using known quantities of the hormone. […]
# [2] = biological target: T2, CYP11B1 (steroid 11-hydroxylase) (Homo sapiens, UniProt P15538); experiment: Cortisol cell secretion in NCI-H295R cells; assay type: cell-based; conditions: 24 hours incubation with cell stimulant
# T2 construct: the NCI-H295R cells have CYP11B2 (aldosterone synthase) and CYP11B1 (steroid 11-hydroxylase); host or cells: NCI-H295R
# T2 sequence (P15538 25-503): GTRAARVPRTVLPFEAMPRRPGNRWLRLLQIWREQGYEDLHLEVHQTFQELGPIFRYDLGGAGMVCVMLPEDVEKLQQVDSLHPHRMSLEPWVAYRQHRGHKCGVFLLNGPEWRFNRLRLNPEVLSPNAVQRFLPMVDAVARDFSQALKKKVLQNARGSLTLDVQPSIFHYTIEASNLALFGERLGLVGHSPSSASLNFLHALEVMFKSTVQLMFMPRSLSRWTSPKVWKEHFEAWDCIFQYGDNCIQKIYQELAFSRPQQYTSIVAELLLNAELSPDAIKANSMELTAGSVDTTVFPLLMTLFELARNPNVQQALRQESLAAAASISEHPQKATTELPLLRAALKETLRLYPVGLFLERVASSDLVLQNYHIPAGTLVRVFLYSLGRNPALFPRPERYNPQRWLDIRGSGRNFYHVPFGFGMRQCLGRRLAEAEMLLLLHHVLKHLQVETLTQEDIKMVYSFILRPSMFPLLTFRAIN
# Description: as §1, §2, §3, §4, §5
Compound,IC50 [1],IC50 [2]
"CCS(=O)(=O)NC(C)c1cncc(-c2c(C#N)c3ccc(Cl)cc3n2C)c1 (racemic) [216 (other enantiomer), (R) and (S)-ethanesulfonic acid {1-[5-(6-chloro-3-cyano-1-methyl-1H-indol-2-yl)-pyridin-3-yl]-ethyl}-amide]",0.035 µM,1.23 µM
"CCS(=O)(=O)NC(C)c1cncc(-c2c(C#N)c3ccc(Cl)cc3n2C)c1 (racemic) [216 (one enantiomer), (R) and (S)-ethanesulfonic acid {1-[5-(6-chloro-3-cyano-1-methyl-1H-indol-2-yl)-pyridin-3-yl]-ethyl}-amide]",0.032 µM,0.6 µM

# Source: patent US9242963B2, “Organic compounds” (NOVARTIS AG, priority 2008, dated 2016)
